How the values were obtained:
[1] = system: Hepatoma cell line; test: Antiviral activity against hepatitis B virus in human hepatoma cell line (2.2.15 cells); type: functional, cell-based
[2] = system: CCRF-CEM; test: Compound was evaluated for cytotoxicity by inhibition of mitochondrial DNA synthesis; type: functional, cell-based; conditions: Homo sapiens
[3] = system: CCRF-CEM; test: Cytotoxicity in H1 CEM cells; type: functional, cell-based; conditions: Homo sapiens
[4] = Selectivity measured as the ratio between IC50 value and EC50 value; type: functional

Row | Structure (SMILES) | EC50 [1] | IC50 [2] | IC50 [3] | Selectivity [4]
1 | O=c1[nH]c(=O)n([C@H]2CO[C@@H](CO)O2)cc1F | > 5 µM |  |  | 
2 | Nc1ccn([C@@H]2CO[C@H](CO)O2)c(=O)n1 [TROXACITABINE] | 0.0005 µM | > 1 µM | 0.056 µM | 
3 | O=c1[nH]c(=O)n([C@H]2CO[C@@H](CO)O2)cc1Br | > 5 µM |  |  | 
4 | Nc1ccn([C@H]2CO[C@H](CO)O2)c(=O)n1 | > 5 µM | > 50 µM | > 50 µM | 
5 | Nc1ccn([C@@H]2CS[C@H](CO)O2)c(=O)n1 [LAMIVUDINE] | 0.01 µM | 50 µM | 50 µM | 

Now from value to molecule, other results behind:

Row | EC50 [1] | Structure (SMILES) | IC50 [2] | IC50 [3] | Selectivity [4]
6 | 0.01 µM | Nc1ccn([C@H]2CO[C@@H](CO)O2)c(=O)n1 | > 10 µM | 2.4 µM | 240
7 | > 20 µM | O=c1ccn([C@H]2CO[C@@H](CO)O2)c(=O)[nH]1 |  |  | 
8 | 5 µM | Nc1ccn([C@@H]2CO[C@@H](CO)O2)c(=O)n1 |  |  | 
